Two compounds from PMC7058083, “Structural basis of ligand binding modes at the human formyl peptide receptor 2” (Nature Communications, 2020) can be followed below.

The Kd is the constant that tells how readily two partners part at equilibrium. Higher therefore signals lower affinity.

The target of experiment [1] is T1, wild-type (WT) and mutant FPR2 (Homo sapiens, UniProt P25090, L268A).
T1 construct: expressed in transfected cells; host or cells: HEK293F
T1 sequence (P25090 1-351 L268A): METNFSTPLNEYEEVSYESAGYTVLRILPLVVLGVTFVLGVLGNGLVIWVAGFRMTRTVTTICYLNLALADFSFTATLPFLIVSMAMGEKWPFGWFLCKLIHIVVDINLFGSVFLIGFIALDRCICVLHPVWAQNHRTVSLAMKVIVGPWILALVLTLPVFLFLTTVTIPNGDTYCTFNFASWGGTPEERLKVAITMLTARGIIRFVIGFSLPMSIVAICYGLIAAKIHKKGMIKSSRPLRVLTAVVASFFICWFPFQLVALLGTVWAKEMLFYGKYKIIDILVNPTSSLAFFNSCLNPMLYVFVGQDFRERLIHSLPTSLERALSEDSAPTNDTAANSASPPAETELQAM
The experiment is described as follows: Competition binding of fMLFK with WK(FITC)YMVm, flow cytometry on HEK293F cells. Particulars: FPR2 L268A; mean ± s.e.m., n=3; SEM. On the procedure: (§1) Flag-tagged wild-type and mutant FPR2s were cloned into the pTT5 vector and expressed in HEK293F cells. The cells were harvested, and washed with Hanks’ Balanced Salt Solution (HBSS) buffer supplemented with 0.5% bovine serum albumin and 20 mM HEPES, pH 7.4. The cells were then resuspended in the same buffer to the final concentration of 1 × 10^6 cells per ml. The cell-surface expression was measured as mentioned above. […] Mean fluorescent intensity of each well was then read by a FCM (flow cytometry) reader (Millipore). […] For competitive binding of fMLFK, cells were plated in 96-well plates (100,000 cells per well), and incubated with WK(FITC)YMVm at 4 °C for 1 h. The following concentrations of WK(FITC)YMVm were used: 10 nM (wild type, L81^2.60F, E89G, and V105^3.32A), 30 nM (D281^7.32G), 40 nM (H102^3.29F, V160^4.60A, L268^ECL3A, N285^7.36A, and F292^7.43A), and 100 nM (L164^4.64A and T177A). Then increasing concentrations of fMLFK (100 nM–1 mM) were added, and incubated for another 1 h on ice. Mean fluorescent intensity values were measured by flow cytometry. Data were analyzed using Prism 7.0.
On the technique in general: A flow cytometer gives signals particle by particle.

The target of experiment [2] is T2, wild-type (WT) and mutant FPR2 (Homo sapiens, UniProt P25090, V105A).
T2 construct: expressed in transfected cells; host or cells: HEK293F
T2 sequence (P25090 1-351 V105A): T1 sequence (P25090 1-351 L268A) with V105A, A268L
The description is as above. The settings on record: FPR2 V105A; mean ± s.e.m., n=3; SEM. As for the experimental part: as §1

The target of experiment [3] is T3, wild-type (WT) and mutant FPR2 (Homo sapiens, UniProt P25090, D281L).
T3 construct: expressed in transfected cells; host or cells: HEK293F
As to the kind of experiment: Saturation binding of WK(FITC)YMVm, flow cytometry on HEK293F cells. The settings on record: FPR2 D281L. On the procedure:
as §1

Experiment [4] concerns the target T4, wild-type (WT) and mutant FPR2 (Homo sapiens, UniProt P25090, F257Y).
T4 construct: expressed in transfected cells; host or cells: HEK293F
Described as above. Particulars: FPR2 F257Y. As for the experimental part:
as §1

Experiment [5] has as its target T5, wild-type (WT) and mutant FPR2 (Homo sapiens, UniProt P25090, H102F).
T5 construct: expressed in transfected cells; host or cells: HEK293F
T5 sequence (P25090 1-351 H102F): T1 sequence (P25090 1-351 L268A) with H102F, A268L
The experiment is described as above. Particulars: FPR2 H102F. On the procedure:
as §1

Experiment [6] deals with T6, wild-type (WT) and mutant FPR2 (Homo sapiens, UniProt P25090, L164W).
T6 construct: expressed in transfected cells; host or cells: HEK293F
The experiment is described as above. The settings on record: mutation L164W. On the procedure: as §1

The target in experiment [7] is T7, wild-type (WT) and mutant FPR2 (Homo sapiens, UniProt P25090, T177A).
T7 construct: expressed in transfected cells; host or cells: HEK293F
T7 sequence (P25090 1-351 T177A): T1 sequence (P25090 1-351 L268A) with T177A, A268L
Described as above. The settings on record: FPR2 T177A. As for the experimental part: as §1

Experiment [8] deals with T8, wild-type (WT) and mutant FPR2 (Homo sapiens, UniProt P25090, V160A).
T8 construct: expressed in transfected cells; host or cells: HEK293F
T8 sequence (P25090 1-351 V160A): T1 sequence (P25090 1-351 L268A) with V160A, A268L
The description is as above. The settings on record: FPR2 V160A. As for the experimental part: as §1

Positions count from the first letter of the chain named. Residues, ends and D or L forms follow the SMILES beside them. *: point of attachment. For = O=C*

T3 sequence (P25090 whole entry D281L): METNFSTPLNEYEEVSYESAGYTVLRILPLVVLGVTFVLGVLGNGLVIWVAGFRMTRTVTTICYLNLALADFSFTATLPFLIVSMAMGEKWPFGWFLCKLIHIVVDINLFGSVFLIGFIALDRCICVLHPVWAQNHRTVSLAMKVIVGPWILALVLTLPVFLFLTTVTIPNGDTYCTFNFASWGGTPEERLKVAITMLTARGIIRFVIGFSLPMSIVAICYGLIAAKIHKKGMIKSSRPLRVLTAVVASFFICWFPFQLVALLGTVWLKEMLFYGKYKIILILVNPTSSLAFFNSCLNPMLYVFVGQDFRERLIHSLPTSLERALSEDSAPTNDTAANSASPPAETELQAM
T4 sequence (P25090 whole entry F257Y): as the sequence (P25090 whole entry D281L) above, with F257Y, L281D counted along it
T6 sequence (P25090 whole entry L164W): as the sequence (P25090 whole entry D281L) above, with L164W, L281D counted along it

With `CSCC[C@H](NC=O)C(=O)N[C@@H](CC(C)C)C(=O)N[C@@H](Cc1ccccc1)C(=O)N[C@@H](CCCCN)C(=O)O` [fMLFK] (For-MLFK-OH), the results for the “pKi, competition binding” value in experiment [1] and in experiment [2] were 4.42 ± 0.15 and 4.56 ± 0.21, respectively.
For the compound `CSCC[C@H](NC(=O)[C@H](Cc1ccc(O)cc1)NC(=O)[C@H](CCCCNC(=S)Nc1ccc2c(c1)C(=O)OC21c2ccc(O)cc2Oc2cc(O)ccc21)NC(=O)[C@@H](N)Cc1c[nH]c2ccccc12)C(=O)N[C@H](C(=O)N[C@H](CCSC)C(N)=O)C(C)C` [WK(FITC)YMVm], the “Span (% of WT), saturation binding” value in experiment [3] was 39 ± 11 % of WT; in experiment [4], 57 ± 6 % of WT; in experiment [5] it was 44 ± 4 % of WT; in experiment [7] it was 66 ± 5 % of WT; in experiment [8], 30 ± 4 % of WT. Further, the equilibrium dissociation constant (Kd) in experiment [3] (mean ± s.e.m., n=3, SEM) is listed as 57.6 ± 14.0 nM; in experiment [4] (mean ± s.e.m., n=3, SEM), 154 ± 48 nM; in experiment [5] (mean ± s.e.m., n=3, SEM), 43.5 ± 16.0 nM; in experiment [7] (mean ± s.e.m., n=3, SEM) it was 109 ± 34 nM; in experiment [8] (mean ± s.e.m., n=4, SEM) it was 36.1 ± 18.1 nM. In addition, the “WK(FITC)YMVm binding” value in experiment [6] is “severely impaired”.
